Structures are written as SMILES. Counter-ions that a name gives are not always drawn.

hNav1.7, sequence (Q15858 other isoform, or with tags, fused parts or gaps): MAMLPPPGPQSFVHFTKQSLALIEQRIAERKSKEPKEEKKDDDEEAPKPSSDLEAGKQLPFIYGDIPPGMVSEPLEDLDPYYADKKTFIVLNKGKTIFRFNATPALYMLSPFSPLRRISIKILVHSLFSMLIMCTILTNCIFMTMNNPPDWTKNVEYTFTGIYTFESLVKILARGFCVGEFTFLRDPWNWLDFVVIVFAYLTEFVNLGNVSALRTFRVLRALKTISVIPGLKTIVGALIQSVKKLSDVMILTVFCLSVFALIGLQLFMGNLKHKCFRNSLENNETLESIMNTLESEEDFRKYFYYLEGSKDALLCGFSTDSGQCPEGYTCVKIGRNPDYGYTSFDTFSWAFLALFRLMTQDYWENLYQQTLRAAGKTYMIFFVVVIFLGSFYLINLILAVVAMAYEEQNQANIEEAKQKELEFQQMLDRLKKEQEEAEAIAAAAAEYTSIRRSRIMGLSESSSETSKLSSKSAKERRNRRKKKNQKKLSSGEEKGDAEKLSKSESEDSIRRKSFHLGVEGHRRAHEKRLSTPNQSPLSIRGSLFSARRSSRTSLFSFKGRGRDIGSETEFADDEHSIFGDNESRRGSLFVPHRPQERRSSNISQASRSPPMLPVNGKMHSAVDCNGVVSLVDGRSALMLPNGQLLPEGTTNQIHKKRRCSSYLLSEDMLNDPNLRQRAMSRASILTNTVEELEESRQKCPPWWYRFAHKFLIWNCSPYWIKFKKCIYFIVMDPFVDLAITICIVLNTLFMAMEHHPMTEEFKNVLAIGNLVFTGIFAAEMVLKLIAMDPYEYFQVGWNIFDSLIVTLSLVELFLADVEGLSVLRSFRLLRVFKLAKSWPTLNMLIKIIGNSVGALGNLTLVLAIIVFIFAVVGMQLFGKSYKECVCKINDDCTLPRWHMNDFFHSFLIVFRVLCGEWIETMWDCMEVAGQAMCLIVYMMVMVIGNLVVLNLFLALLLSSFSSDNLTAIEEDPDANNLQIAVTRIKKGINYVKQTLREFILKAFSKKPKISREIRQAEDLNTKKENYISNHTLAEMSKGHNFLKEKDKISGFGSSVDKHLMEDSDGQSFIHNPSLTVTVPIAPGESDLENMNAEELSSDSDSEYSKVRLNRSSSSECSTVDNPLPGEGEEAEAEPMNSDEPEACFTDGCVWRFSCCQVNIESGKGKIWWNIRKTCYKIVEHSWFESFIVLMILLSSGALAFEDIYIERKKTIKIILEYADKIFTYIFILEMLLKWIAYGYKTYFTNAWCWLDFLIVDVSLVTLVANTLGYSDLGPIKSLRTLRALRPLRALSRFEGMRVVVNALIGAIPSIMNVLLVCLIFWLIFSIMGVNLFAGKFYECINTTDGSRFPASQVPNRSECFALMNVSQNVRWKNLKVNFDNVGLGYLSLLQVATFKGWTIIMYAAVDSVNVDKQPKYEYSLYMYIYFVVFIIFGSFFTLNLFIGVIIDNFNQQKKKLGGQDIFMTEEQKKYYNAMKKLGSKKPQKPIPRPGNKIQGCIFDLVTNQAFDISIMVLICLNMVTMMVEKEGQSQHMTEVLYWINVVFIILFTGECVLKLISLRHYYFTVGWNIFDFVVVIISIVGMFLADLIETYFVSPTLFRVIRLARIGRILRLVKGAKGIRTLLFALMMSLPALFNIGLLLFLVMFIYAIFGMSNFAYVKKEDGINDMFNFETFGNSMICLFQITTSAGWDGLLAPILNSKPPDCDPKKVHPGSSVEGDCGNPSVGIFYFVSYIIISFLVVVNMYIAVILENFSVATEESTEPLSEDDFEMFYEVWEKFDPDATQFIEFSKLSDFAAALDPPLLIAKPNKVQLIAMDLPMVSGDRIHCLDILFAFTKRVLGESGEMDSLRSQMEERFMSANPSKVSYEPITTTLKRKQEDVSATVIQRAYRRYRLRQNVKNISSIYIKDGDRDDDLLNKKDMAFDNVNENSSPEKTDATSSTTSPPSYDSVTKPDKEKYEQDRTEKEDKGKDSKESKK

The assay addresses hNav1.7 (Homo sapiens (Human), UniProt Q15858). Kind of assay: Patch voltage clamp electrophysiology (EP), Syncropatch 384PE, CHO cells stably expressing Nav1.7. It is filed as cell-based. Conditions: holding potential −50 mV, 7.5 min compound incubation, read-out: EP_SP hNav1.7 EVO IC50. The source says:
Example 64c. Electrophysiological Assay (EP) (In Vitro Assay)
Patch voltage clamp electrophysiology allows for the direct measurement and quantification of block of voltage-gated sodium channels (NaV's), and allows the determination of the time- and voltage-dependence of block which has been interpreted as differential binding to the resting, open, and inactivated states of the sodium channel (Hille, B., Journal of General Physiology (1977), 69: 497-515).
The following voltage clamp electrophysiology studies are performed on representative compounds using cells heterologously expressing Nav1.7 or Nav1.5 channels. cDNAs for Nav1.7 (NM_002977) and Nav1.5 (AC137587) are stably expressed in Chinese Hamstr Ovary (CHO) cells and CHL (Chinese Hamster Lung) cells respectively. Sodium currents are measured in the whole-cell configuration using Syncropatch 384PE (Nanlon Technologies, Germany). 1NPC®-384 chips with custom medium resistance and single hole mode are used. Internal solution consists of (in mM): […], 10 CsCl, 20 EGTA, and 10 Hepes (pH adjusted to 7.2); and external solution contains (in mM): 60 NMDG, 80 NaCl, 4 KCl, 1 MgCl2, 2 CaCl2, 2 D-Glucose monohydrate, 10 Hepes (pH adjusted to 7.4 with NaOH).
After system flushing, testing compounds are dissolved in external solution containing 0.1% Pluronic F-127. The chip is moved into the measuring head and the instrument primes the chip with external and internal solutions. 10 μl cells are added to the chip from a cell hotel, and a negative pressure of −50 mBar is applied to form a seal. Following treatment with seal enhancer solution and wash-off with external solution, negative pressure of −250 mbar is applied for 1 second to achieve the whole-cell configuration, followed by three washing steps in external solution. 20 μl of compounds is added to 40 μl in each well (1:3 dilution of compounds), and after mixing, 20 μl is removed so the volume is retained at 40 ul. After approximately 13 minutes recordings, 20 μl/well of 2 uM TTX, or 333 uM Tetracaine (for […]) is added to achieve full block.
For voltage protocol, an holding potential of −50 mV is applied during the whole experiment. A depolarizing step is applied to −10 mV for 10 ms, followed by a hyperpolarization step to −150 mV for 20 ms to allow channel recovery from inactivation. A second depolarizing step is applied from −150 mV to −10 mV for 10 ms, where currents are measured to derive blocking effects of compounds. Inhibition is determined based on 7.5 min of compound incubation.
Background: Patch clamp records ionic current or voltage across a cell membrane.
Regarding `Cc1nc(O[C@H]2CC[C@H](c3cccc(C(F)(F)F)c3)C[C@@H]2N2CCCC2)ccc1S(=O)(=O)Nc1ccncn1` [Example 29, 2-Methyl-N-(pyrimidin-4-yl)-6-(((1S,2S,4S)-2-(pyrrolidin-1-yl)-4-(3-(trifluoromethyl)phenyl)-cyclohexyl)oxy)pyridine-3-sulfonamide], the 50% inhibitory concentration (IC50) was found to be 5.62 nM.
Consider `Cc1nc(O[C@H]2CC[C@H](c3cccc(C(F)(F)F)c3)C[C@@H]2N2CCOCC2)ccc1S(=O)(=O)Nc1ccncn1` [Example 55, 2-methyl-6-(((1S,2S,4S)-2-morpholino-4-(3-(trifluoro-methyl)phenyl)cyclohexyl)-oxy)-N-(pyrimidin-4-yl)pyridine-3-sulfonamide], for which the IC50 turned out to be 0.527 nM.
With `Cc1cc(S(=O)(=O)Nc2ccncn2)cnc1O[C@H]1CC[C@H](c2cccc(C(F)(F)F)c2)C[C@@H]1N(C)C` [Example 15, 6-(((1S,2S,4S)-2-(Dimethylamino)-4-(3-(trifluoromethyl)phenyl)cyclohexyl)oxy)-5-methyl-N-(pyrimidin-4-yl)pyridine-3-sulfonamide], the IC50 worked out at 4.23 nM.
In the case of `CCc1cc(S(=O)(=O)Nc2ccncn2)cnc1O[C@H]1CC[C@H](c2cccc(C(F)(F)F)c2)C[C@@H]1N(C)C` [Example 24, 6-(((1S,2S,4S)-2-(Dimethylamino)-4-(3-(trifluoromethyl)phenyl)cyclohexyl)oxy)-5-ethyl-N-(pyrimidin-4-yl)pyridine-3-sulfonamide formate] it was 8.33 nM; in that of `CN(C)[C@H]1C[C@@H](c2ccc(Cl)c(C(F)(F)F)c2)CC[C@@H]1Oc1ccc(S(=O)(=O)Nc2ccncn2)cn1` [Example 12, 6-(((1S,2S,4S)-4-(4-chloro-3-(trifluoromethyl)phenyl)-2-(dimethylamino)cyclohexyl)oxy)-N-(pyrimidin-4-yl)pyridine-3-sulfonamide formate], 0.66 nM.
On to `CN(C)[C@H]1C[C@@H](c2cccc(C(F)(F)F)c2)CC[C@@H]1Oc1ncc(S(=O)(=O)Nc2ccncn2)cc1Cl` [Example 3, 5-Chloro-6-(((1S,2S,4S)-2-(dimethylamino)-4-(3-(trifluoromethyl)phenyl)cyclohexyl)oxy)-N-(pyrimidin-4-yl)pyridine-3-sulfonamide], for which the half-maximal inhibitory concentration (IC50) is 2.21 nM.
Turning to `CN(C)[C@H]1C[C@@H](c2cccc(C(F)(F)F)c2)CC[C@@H]1Oc1ccc(S(=O)(=O)Nc2ccncn2)c(C2CC2)n1` [Example 34, 2-Cyclopropyl-6-(((1S,2S,4S)-2-(dimethylamino)-4-(3-(trifluoromethyl)phenyl)-cyclohexyl)oxy)-N-(pyrimidin-4-yl)pyridine-3-sulfonamide], the IC50 was 154 nM.
For `Cc1nc(O[C@H]2CC[C@H](c3cccc(C(F)(F)F)c3)C[C@@H]2N(C)C2CCC2)ccc1S(=O)(=O)Nc1ccncn1` [Example 35, 6-(((1S,2S,4S)-2-(Cyclobutyl(methyl)amino)-4-(3-(trifluoromethyl)phenyl)cyclohexyl)oxy)-2-methyl-N-(pyrimidin-4-yl)pyridine-3-sulfonamide], the IC50 came out at 0.597 nM.
For the compound `Cc1nc(O[C@H]2CC[C@H](c3cc(C(F)(F)F)ccc3Cl)C[C@@H]2N(C)C)ccc1S(=O)(=O)Nc1ccncn1` [Example 38, 6-(((1S,2S,4S)-4-(2-chloro-5-(trifluoromethyl)phenyl)-2-(dimethylamino)cyclohexyl)oxy)-2-methyl-N-(pyrimidin-4-yl)pyridine-3-sulfonamide], the concentration for half-maximal inhibition (IC50) worked out at 0.409 nM.
As to `CN(C)[C@H]1C[C@@H](c2cccc(C(F)(F)F)c2)CC[C@@H]1Oc1ncc(S(=O)(=O)Nc2ccncn2)cc1C1CC1` [Example 7, 5-Cyclopropyl-6-(((1S,2S,4S)-2-(dimethylamino)-4-(3-(trifluoromethyl)phenyl)cyclohexyl)oxy)-N-(pyrimidin-4-yl)pyridine-3-sulfonamide formate], the half-inhibitory concentration (IC50) was found to be 1.16 nM.
In the case of `CN(C)[C@H]1C[C@@H](c2cccc(C(F)(F)F)c2)CC[C@@H]1Oc1ccc(S(=O)(=O)Nc2ccncn2)c(Cl)n1` [Example 22, 2-Chloro-6-(((1S,2S,4S)-2-(dimethylamino)-4-(3-(trifluoromethyl)phenyl)cyclohexyl)oxy)-N-(pyrimidin-4-yl)pyridine-3-sulfonamide], the IC50 stood at 2.21 nM.
With `CN(C)[C@H]1C[C@@H](c2cccc(C(F)(F)F)c2)CC[C@@H]1Oc1cc(Cl)c(S(=O)(=O)Nc2ccncn2)cn1` [Example 31, 4-Chloro-6-(((1S,2S,4S)-2-(dimethylamino)-4-(3-(trifluoromethyl)phenyl)cyclohexyl)oxy)-N-(pyrimidin-4-yl)pyridine-3-sulfonamide], the IC50 came to 10 nM.
Take `CCN(C)[C@H]1C[C@@H](c2cccc(C(F)(F)F)c2)CC[C@@H]1Oc1ccc(S(=O)(=O)Nc2ccncn2)c(C)n1` [Example 48, 6-(((1S,2S,4S)-2-(Ethyl(methyl)amino)-4-(3-(trifluoromethyl)phenyl)cyclohexyl)oxy)-2-methyl-N-(pyrimidin-4-yl)pyridine-3-sulfonamide]: the 50% inhibitory concentration (IC50) turned out to be 0.272 nM.
With `O=S(=O)(Nc1ccncn1)c1cnc(O[C@H]2CC[C@H](c3cccc(C(F)(F)F)c3)C[C@@H]2N2CCCCC2)c(Cl)c1` [Example 19, 5-chloro-6-(((1S,2S,4S)-2-(piperidin-1-yl)-4-(3-(trifluoromethyl)phenyl)cyclohexyl)oxy)-N-(pyrimidin-4-yl)pyridine-3-sulfonamide], the IC50 amounted to 0.281 nM.
Take `Cc1nc(O[C@H]2CC[C@H](c3cccc(C(F)(F)F)c3)C[C@@H]2N(C)C)c(F)cc1S(=O)(=O)Nc1ccncn1` [Example 53, 6-(((1S,2S,4S)-2-(Dimethylamino)-4-(3-(trifluoromethyl)phenyl)cyclohexyl)oxy)-5-fluoro-2-methyl-N-(pyrimidin-4-yl)pyridine-3-sulfonamide formate]: the IC50 stood at 0.989 nM.
As to `O=S(=O)(Nc1ccncn1)c1ccc(N[C@H]2CC[C@H](c3cccc(C(F)(F)F)c3)C[C@@H]2N2CCCC2)nc1` [Example 16, N-(pyrimidin-4-yl)-6-(((1S,2S,4S)-2-(pyrrolidin-1-yl)-4-(3-(trifluoromethyl)phenyl)cyclohexyl)-amino)pyridine-3-sulfonamide formate], the IC50 was 2.79 nM.
With `CN(C)[C@H]1C[C@@H](c2cccc(C(F)(F)F)c2)CC[C@@H]1Oc1ncc(S(=O)(=O)Nc2ccncn2)cc1F` [Example 21, 6-(((1S,2S,4S)-2-(Dimethylamino)-4-(3-(trifluoromethyl)phenyl)cyclohexyl)oxy)-5-fluoro-N-(pyrimidin-4-yl)pyridine-3-sulfonamide], the IC50 came to 0.427 nM.
As for `Cc1nc(O[C@H]2CC[C@H](c3ccc(Cl)c(C(F)(F)F)n3)C[C@@H]2N(C)C)ccc1S(=O)(=O)Nc1ccncn1` [Example 62, 6-(((1S,2S,4S)-4-(5-chloro-6-(trifluoromethyl)pyridin-2-yl)-2-(dimethylamino)-cyclohexyl)oxy)-2-methyl-N-(pyrimidin-4-yl)pyridine-3-sulfonamide], the IC50 was 1.53 nM.
As to `CN(C)[C@H]1C[C@@H](c2ccc(Cl)c(C(F)(F)F)c2)CC[C@@H]1Nc1ccc(S(=O)(=O)Nc2ccncn2)cn1` [Example 11, 6-(((1S,2S,4S)-4-(4-chloro-3-(trifluoromethyl)phenyl)-2-(dimethylamino)cyclohexyl)amino)-N-(pyrimidin-4-yl)pyridine-3-sulfonamide formate], the concentration for half-maximal inhibition (IC50) came to 1.07 nM.
Take `CN(C)[C@H]1C[C@@H](c2cccc(OC(F)(F)F)c2)CC[C@@H]1Oc1ccc(S(=O)(=O)Nc2ccncn2)cn1` [Example 25, 6-(((1S,2S,4S)-2-(dimethylamino)-4-(3-(trifluoromethoxy)phenyl)cyclohexyl)oxy)-N-(pyrimidin-4-yl)pyridine-3-sulfonamide formate]: the IC50 was 3.51 nM.
As for `O=S(=O)(Nc1ccncn1)c1cnc(O[C@H]2CC[C@H](c3cccc(C(F)(F)F)n3)C[C@@H]2N2CCCC2)c(Cl)c1` [Example 40, 5-chloro-N-(pyrimidin-4-yl)-6-(((1S,2S,4S)-2-(pyrrolidin-1-yl)-4-(6-(trifluoromethyl)pyridin-2-yl)cyclohexyl)oxy)pyridine-3-sulfonamide], the IC50 was found to be 3.86 nM.
For `CN(C)[C@H]1C[C@@H](c2cccc(C(F)(F)F)c2)CC[C@@H]1Oc1ccc(S(=O)(=O)Nc2ccncn2)cn1` [Example 1, 6-(((1S,2S,4S)-2-(Dimethylamino)-4-(3-(trifluoromethyl)phenyl)cyclohexyl)oxy)-N-(pyrimidin-4-yl)pyridine-3-sulfonamide], the IC50 turned out to be 0.9 nM.

By IC50 is commonly meant the midpoint of a concentration-inhibition curve.
